According to patent US12258609B2, “Method for producing glycerides of hydroxycarboxylic acids” (KetoLipix Therapeutics GmbH, priority 2019, dated 2025):
Read-outs that look alike come from different tables or passages of the source.

Assays:
[1] = test system: Panzytrat® 40,000 (pancreatin)
Procedure: (§1) For the cleavage experiments under near-body conditions two media are investigated: • FaSSGF, which simulates the stomach • FaSSIF, which simulates the intestinal tract
(§2) Both media are from the company Biorelevant®, Ltd. in Great Britain. In addition, in some experiments porcine pancreas is added (Panzytrat® 40,000, Fa. Allergan).
(§3) Cleavage with Bowl Medium: FaSSIF Medium • The FaSSIF medium is prepared according to the manufacturer's instructions (Fa. Biorelevant, Ltd., Great Britain). • The sample obtained is divided into two equally sized preparations. 10 wt.-% of the aforementioned glyceride mixture based on a mixture of mono-, di- and triglycerides of 3-hydroxybutyric acids is dissolved in each FaSSIF medium and left in a water bath at 35° C. for 24 hours.

[2] = test system: Panzytrat® 40,000 (pancreatin); remark: listed apart in the source
Procedure: as §1
(§4) In addition, in some experiments porcine pancreas is added (Panzytrat® 40,000, Fa. Allergan).
(§5) Cleavage with Gastric Medium: FaSSGF Medium • A so-called FaSSGF medium is prepared according to the manufacturer's specifications from the commercially available corresponding composition (available from Biorelevant, Ltd., Great Britain). • The resulting sample is divided into two batches of equal size. 10 wt.-% of the ternary glyceride mixture based on mono-, di- and triglycerides of 3-hydroxybutyric acid, as described hereinabove, is dissolved in each FaSSGF medium and left in a water bath at 35° C. for 24 hours.

[3] = test system: porcine pancreatic lipase type II (PPL type II)
Procedure: (§6) Further Cleavage with Bowl Medium: FaSSIF Medium • The FaSSIF medium is prepared according to the previous test according to the manufacturer's instructions. • The resulting sample is divided into two batches of equal size. 10 wt.-% of the ternary glyceride mixture of mono-, di- and triglycerides of 3-hydroxybutyric acids according to the invention is dissolved in each FaSSIF medium and left in a water bath at 35° C. for 24 hours.

[4] = test system: pancreatin (Panzytrat® 40,000); assay: Cleavage experiments with pancreatin in water, acid number over time; assay type: in vitro ADME, porcine; conditions: test repeated on individual glycerides, 50° C.
[5] = test system: porcine pancreatic lipase type II (PPL type II); assay: Cleavage experiments with and without porcine pancreatic lipase in FaSSIF medium; conditions: for with enzyme, 24 h, 35° C. / without enzyme 24 h, 35° C. / before splitting 0 h: the 14th table; for with enzyme, 24 h, 35° C.: FaSSIF medium pH 6.5, 1 wt.-% porcine pancreatic lipase type II; for without enzyme 24 h, 35° C.: FaSSIF medium pH 6.5, without enzyme; for before splitting 0 h: FaSSIF medium
Procedure: as §6

[6] = test system: Panzytrat® 40,000 (pancreatin); assay: Cleavage experiments with and without Panzytrat 40,000 in FaSSGF medium (simulates the stomach, pH 1.6); conditions: for change of content in FaSSGF medium: pH 1.6, 35° C., 24 hours, both with and without pancreatin; for share in chromatogram, FaSSGF m.P. 24 h, 35° C. / share in chromatogram, FaSSGF o.P. 24 h, 35° C. / share in chromatogram, before splitting: the 11th table; for share in chromatogram, FaSSGF m.P. 24 h, 35° C. / share in chromatogram, FaSSGF o.P. 24 h, 35° C.: FaSSGF (stomach, pH = 1.6); for share in chromatogram, FaSSGF m.P. 24 h, 35° C.: with Panzytrat; for share in chromatogram, FaSSGF o.P. 24 h, 35° C.: without Panzytrat; for share in chromatogram, before splitting: starting mixture (crude high-boiling fraction) before splitting; for before splitting: the 12th table, FaSSGF medium
Procedure: as §1, §4, §5

[7] = test system: Panzytrat® 40,000 (pancreatin); assay: Cleavage experiments with and without Panzytrat 40,000 in FaSSIF medium (simulates the intestinal tract, pH 6.5); conditions: for share in chromatogram, FaSSIF 0 h, Start / share in chromatogram, FaSSIF m.P. 24 h, 35° C. / share in chromatogram, FaSSIF o.P. 24 h, 35° C.: the 11th table, FaSSIF (bowel, pH = 6.5); for share in chromatogram, FaSSIF m.P. 24 h, 35° C.: with Panzytrat; for share in chromatogram, FaSSIF o.P. 24 h, 35° C.: without Panzytrat; for with Panzytrat 24 h, 35° C. / without Panzytrat 24 h, 35° C. / before splitting 0 h: the 13th table, in %; for with Panzytrat 24 h, 35° C.: FaSSIF medium pH 6.5, 1 wt.-% Panzytrat 40,000, 24 h; for without Panzytrat 24 h, 35° C.: FaSSIF medium pH 6.5, without Panzytrat; for before splitting 0 h: FaSSIF medium; for change of content in FaSSIF medium: pH 6.5, 35° C., 24 hours, with and without pancreatin
Procedure: as §1, §2, §3

[8] = even if several grams are taken; acid and its salts; cited from earlier work

CC(O)CC(=O)OC(C)CC(=O)O (centres unmarked) [3-BHB dimer, dimer of 3-hydroxybutyrate]
before splitting 0 h [1]: 0.70
share in chromatogram, FaSSIF 0 h, Start [1]: 0.70 % area
share in chromatogram, FaSSIF m.P. 24 h, 35° C. [1]: 0.72 % area
share in chromatogram, FaSSIF o.P. 24 h, 35° C. [1]: 0.72 % area
with Panzytrat 24 h, 35° C. ([1]; pH 6.5): 0.72
without Panzytrat 24 h, 35° C. ([1]; pH 6.5): 0.72
before splitting [2]: 0.71 % area
share in chromatogram, FaSSGF m.P. 24 h, 35° C. [2]: 0.45 % area
share in chromatogram, FaSSGF o.P. 24 h, 35° C. [2]: 0.35 % area
share in chromatogram, before splitting [2]: 0.71 % area
before splitting 0 h [3]: 0.7%
with enzyme, 24 h, 35° C. ([3]; pH 6.5): 0.71%
without enzyme 24 h, 35° C. ([3]; pH 6.5): 0.72%

CC(O)CC(=O)OCC(CO)OC(=O)CC(C)O (centres unmarked) [3-BHB-DG, diglyceride of 3-hydroxybutyric acid]
cleavage of the individual glycerides by pancreatin [4]: cleaved by pancreatin to the free 3-hydroxybutyric acid
with enzyme, 24 h, 35° C. [5]: 59.84
without enzyme 24 h, 35° C. [5]: 60.93
before splitting 0 h [5]: 60.17
change of content in FaSSGF medium [6]: significant decrease
share in chromatogram, FaSSGF m.P. 24 h, 35° C. [6]: 44.09 % area
share in chromatogram, FaSSGF o.P. 24 h, 35° C. [6]: 37.01 % area
share in chromatogram, before splitting [6]: 55.85 % area
before splitting [6]: 55.85 % area
share in chromatogram, FaSSIF 0 h, Start [7]: 60.17 % area
share in chromatogram, FaSSIF m.P. 24 h, 35° C. [7]: 61.38 % area
share in chromatogram, FaSSIF o.P. 24 h, 35° C. [7]: 60.93 % area
with Panzytrat 24 h, 35° C. [7]: 61.38
without Panzytrat 24 h, 35° C. [7]: 60.93
before splitting 0 h [7]: 60.17

CC(O)CC(=O)O (centres unmarked) [3-BHB-FS, 3-hydroxybutyric acid]
duration of ketosis [8]: about three to four
before splitting ([2]; 0 h): 0.43 % area
share in chromatogram, before splitting ([2]; 0 h, 10 wt.-%, pH 1.6): 0.43 % area
share in chromatogram, FaSSGF o.P. 24 h, 35° C. ([2]; 24 h, 10 wt.-%, pH 1.6): 26.21 % area
change of content in FaSSGF medium ([2]; pH 1.6): strong increase
share in chromatogram, FaSSGF m.P. 24 h, 35° C. ([2]; pig, 24 h, 10 wt.-%, pH 1.6): 18.85 % area
before splitting 0 h ([3]; 0 h, 10 wt.-%, pH 6.5): 0.04%
without enzyme 24 h, 35° C. ([3]; 24 h, 10 wt.-%, pH 6.5): 0.02%
change of content in FaSSIF medium with porcine pancreatic lipase ([3]; pH 6.5): slight increase
with enzyme, 24 h, 35° C. ([3]; pig, 24 h, 10 wt.-%, pH 6.5): 1.79%
conversion or cleavage, free acid formed ([7]; FaSSIF conditions using Panzytrat): 2.6%
change of content in FaSSIF medium [7]: slight increase
share in chromatogram, FaSSIF 0 h, Start [7]: 0.04 % area
share in chromatogram, FaSSIF m.P. 24 h, 35° C. [7]: 2.60 % area
share in chromatogram, FaSSIF o.P. 24 h, 35° C. [7]: 0.02 % area
with Panzytrat 24 h, 35° C. [7]: 2.60
without Panzytrat 24 h, 35° C. [7]: 0.02
before splitting 0 h [7]: 0.04

CC(O)CC(=O)OCC(O)CO (centres unmarked) [3-BHB-MG, monoglyceride of 3-hydroxybutyric acid]
cleavage of the individual glycerides by pancreatin [4]: cleaved by pancreatin to the free 3-hydroxybutyric acid
with enzyme, 24 h, 35° C. [5]: 15.98
without enzyme 24 h, 35° C. [5]: 12.26
before splitting 0 h [5]: 13.52
share in chromatogram, FaSSGF m.P. 24 h, 35° C. [6]: 18.41 % area
share in chromatogram, FaSSGF o.P. 24 h, 35° C. [6]: 21.09 % area
share in chromatogram, before splitting [6]: 18.28 % area
before splitting [6]: 18.28 % area
share in chromatogram, FaSSIF 0 h, Start [7]: 13.52 % area
share in chromatogram, FaSSIF m.P. 24 h, 35° C. [7]: 14.34 % area
share in chromatogram, FaSSIF o.P. 24 h, 35° C. [7]: 12.26 % area
with Panzytrat 24 h, 35° C. [7]: 14.34
without Panzytrat 24 h, 35° C. [7]: 12.26
before splitting 0 h [7]: 13.52

CC(O)CC(=O)OCC(COC(=O)CC(C)O)OC(=O)CC(C)O (centres unmarked) [3-BHB-TG, triglyceride of 3-hydroxybutyric acid]
cleavage of the individual glycerides by pancreatin [4]: cleaved by pancreatin to the free 3-hydroxybutyric acid
change of content in FaSSIF medium with porcine pancreatic lipase ([5]; FaSSIF, pH 6.5, 35° C., 24 hours, 1 wt.-% PPL type II): slight decrease
with enzyme, 24 h, 35° C. [5]: 13.38
without enzyme 24 h, 35° C. [5]: 16.79
before splitting 0 h [5]: 16.40
change of content in FaSSGF medium [6]: significant decrease
share in chromatogram, FaSSGF m.P. 24 h, 35° C. [6]: 10.12 % area
share in chromatogram, FaSSGF o.P. 24 h, 35° C. [6]: 7.55 % area
share in chromatogram, before splitting [6]: 16.08 % area
before splitting [6]: 16.08 % area
change of content in FaSSIF medium [7]: slight decrease
share in chromatogram, FaSSIF 0 h, Start [7]: 16.40 % area
share in chromatogram, FaSSIF m.P. 24 h, 35° C. [7]: 12.83 % area
share in chromatogram, FaSSIF o.P. 24 h, 35° C. [7]: 16.79 % area
with Panzytrat 24 h, 35° C. [7]: 12.83
without Panzytrat 24 h, 35° C. [7]: 16.79
before splitting 0 h [7]: 16.40

CC(O)CC(=O)OC(C)CC(=O)OCC(CO)OC(=O)CC(C)O (centres unmarked) [3-BHB-dimer-DG, diglyceride of the dimer of 3-hydroxybutyric acid]
with enzyme, 24 h, 35° C. [5]: 7.07
without enzyme 24 h, 35° C. [5]: 7.61
before splitting 0 h [5]: 7.56
share in chromatogram, FaSSGF m.P. 24 h, 35° C. [6]: 4.22 % area
share in chromatogram, FaSSGF o.P. 24 h, 35° C. [6]: 3.14 % area
share in chromatogram, before splitting [6]: 6.62 % area
before splitting [6]: 6.62 % area
share in chromatogram, FaSSIF 0 h, Start [7]: 7.56 % area
share in chromatogram, FaSSIF m.P. 24 h, 35° C. [7]: 7.02 % area
share in chromatogram, FaSSIF o.P. 24 h, 35° C. [7]: 7.61 % area
with Panzytrat 24 h, 35° C. [7]: 7.02
without Panzytrat 24 h, 35° C. [7]: 7.61
before splitting 0 h [7]: 7.56

CC(O)CC(=O)OC(C)CC(=O)O (centres unmarked) [3-BHB-dimer-FS, dimer of 3-hydroxybutyric acid]
with enzyme, 24 h, 35° C. [5]: 0.17
without enzyme 24 h, 35° C. [5]: 0.00
before splitting 0 h [5]: 0.00
share in chromatogram, FaSSGF m.P. 24 h, 35° C. [6]: 2.51 % area
share in chromatogram, FaSSGF o.P. 24 h, 35° C. [6]: 3.25 % area
share in chromatogram, FaSSIF m.P. 24 h, 35° C. [7]: 0.17 % area
with Panzytrat 24 h, 35° C. [7]: 0.17
without Panzytrat 24 h, 35° C. [7]: 0.00
before splitting 0 h [7]: 0.00

CC(O)CC(=O)OC(C)CC(=O)OCC(O)CO (centres unmarked) [3-BHB-dimer-MG, monoglyceride of the dimer of 3-hydroxybutyric acid]
with enzyme, 24 h, 35° C. [5]: 0.16
without enzyme 24 h, 35° C. [5]: 0.44
before splitting 0 h [5]: 0.42
share in chromatogram, FaSSGF m.P. 24 h, 35° C. [6]: 0.22 % area
share in chromatogram, FaSSGF o.P. 24 h, 35° C. [6]: 0.16 % area
share in chromatogram, before splitting [6]: 0.39 % area
before splitting [6]: 0.39 % area
share in chromatogram, FaSSIF 0 h, Start [7]: 0.42 % area
share in chromatogram, FaSSIF o.P. 24 h, 35° C. [7]: 0.44 % area
with Panzytrat 24 h, 35° C. [7]: 0.00
without Panzytrat 24 h, 35° C. [7]: 0.44
before splitting 0 h [7]: 0.42

CCOC(=O)CC(C)O (centres unmarked) [3-BHB-ethyl, 3-hydroxybutyric acid ethyl ester]
before splitting ([2]; 0 h): 0.31 % area
share in chromatogram, before splitting ([2]; 0 h, 10 wt.-%, pH 1.6): 0.31 % area
share in chromatogram, FaSSGF o.P. 24 h, 35° C. ([2]; 24 h, 10 wt.-%, pH 1.6): 0.07 % area
share in chromatogram, FaSSGF m.P. 24 h, 35° C. ([2]; pig, 24 h, 10 wt.-%, pH 1.6): 0.11 % area
before splitting 0 h ([3]; 0 h, 10 wt.-%, pH 6.5): 0.16%
without enzyme 24 h, 35° C. ([3]; 24 h, 10 wt.-%, pH 6.5): 0.18%
with enzyme, 24 h, 35° C. ([3]; pig, 24 h, 10 wt.-%, pH 6.5): 0.12%
share in chromatogram, FaSSIF 0 h, Start [7]: 0.16 % area
share in chromatogram, FaSSIF m.P. 24 h, 35° C. [7]: 0.20 % area
share in chromatogram, FaSSIF o.P. 24 h, 35° C. [7]: 0.18 % area
with Panzytrat 24 h, 35° C. [7]: 0.20
without Panzytrat 24 h, 35° C. [7]: 0.18
before splitting 0 h [7]: 0.16

OCC(O)CO [glycerol]
before splitting ([2]; 0 h): 0.38 % area
share in chromatogram, before splitting ([2]; 0 h, 10 wt.-%, pH 1.6): 0.38 % area
share in chromatogram, FaSSGF o.P. 24 h, 35° C. ([2]; 24 h, 10 wt.-%, pH 1.6): 0.81 % area
share in chromatogram, FaSSGF m.P. 24 h, 35° C. ([2]; pig, 24 h, 10 wt.-%, pH 1.6): 0.51 % area
before splitting 0 h ([3]; 0 h, 10 wt.-%, pH 6.5): 0.07%
without enzyme 24 h, 35° C. ([3]; 24 h, 10 wt.-%, pH 6.5): 0.05%
with enzyme, 24 h, 35° C. ([3]; pig, 24 h, 10 wt.-%, pH 6.5): 0.08%
share in chromatogram, FaSSIF 0 h, Start [7]: 0.07 % area
share in chromatogram, FaSSIF m.P. 24 h, 35° C. [7]: 0.07 % area
share in chromatogram, FaSSIF o.P. 24 h, 35° C. [7]: 0.05 % area
with Panzytrat 24 h, 35° C. [7]: 0.07
without Panzytrat 24 h, 35° C. [7]: 0.05
before splitting 0 h [7]: 0.07
